Among the data in patent publication US12371428B2 (Exelixis, Inc., priority 2019, dated 2025) are IC50 values, retold here.

Read-outs that look alike come from different tables or passages of the source.

In test [1] the target is Human MET (residues 956-1390) (Homo sapiens (Human), UniProt P08581). Description: Human Met kinase assay, HTRF KinEase (Example D-2). As to conditions: read-out: c-Met IC50. Type of test: biochemical. The essentials:
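HTRF KinEase assay on MET residues 956-1390 (0.1 ng/well) in buffer with 5 mM MgCl2, 1 mM DTT and 1 mM MnCl2, with biotinylated peptide substrate, ATP at Km, 10 compound concentrations and 3% DMSO final, run 40 min at room temperature. The […] signal was normalized to DMSO and to 1 μM reference compound, and IC50 came from a 4-parameter logistic fit.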

The target in test [2] is Met (phospho-Met, HGF-stimulated PC-3 prostate cancer cells) (Homo sapiens (Human), UniProt P08581). Description: Met autophosphorylation ELISA in PC-3 cells (Example F). The class given is cell-based. As to conditions: cellular activity; Met autophosphorylation ELISA in PC-3 cells; read-out: c-Met IC50. An outline of the steps: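 PC-3 cells, serum-starved 3 h, were treated with compounds (8-point dose curve, 0.3% DMSO final) for 1 h, then stimulated with 100 ng/mL recombinant human HGF for 10 min. Lysate phospho-Met (panTyr) was quantified by sandwich ELISA; IC50 from 4-parameter logistic fit.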
Chain of Met (phospho-Met, HGF-stimulated PC-3 prostate cancer cells) (P08581 25-1390): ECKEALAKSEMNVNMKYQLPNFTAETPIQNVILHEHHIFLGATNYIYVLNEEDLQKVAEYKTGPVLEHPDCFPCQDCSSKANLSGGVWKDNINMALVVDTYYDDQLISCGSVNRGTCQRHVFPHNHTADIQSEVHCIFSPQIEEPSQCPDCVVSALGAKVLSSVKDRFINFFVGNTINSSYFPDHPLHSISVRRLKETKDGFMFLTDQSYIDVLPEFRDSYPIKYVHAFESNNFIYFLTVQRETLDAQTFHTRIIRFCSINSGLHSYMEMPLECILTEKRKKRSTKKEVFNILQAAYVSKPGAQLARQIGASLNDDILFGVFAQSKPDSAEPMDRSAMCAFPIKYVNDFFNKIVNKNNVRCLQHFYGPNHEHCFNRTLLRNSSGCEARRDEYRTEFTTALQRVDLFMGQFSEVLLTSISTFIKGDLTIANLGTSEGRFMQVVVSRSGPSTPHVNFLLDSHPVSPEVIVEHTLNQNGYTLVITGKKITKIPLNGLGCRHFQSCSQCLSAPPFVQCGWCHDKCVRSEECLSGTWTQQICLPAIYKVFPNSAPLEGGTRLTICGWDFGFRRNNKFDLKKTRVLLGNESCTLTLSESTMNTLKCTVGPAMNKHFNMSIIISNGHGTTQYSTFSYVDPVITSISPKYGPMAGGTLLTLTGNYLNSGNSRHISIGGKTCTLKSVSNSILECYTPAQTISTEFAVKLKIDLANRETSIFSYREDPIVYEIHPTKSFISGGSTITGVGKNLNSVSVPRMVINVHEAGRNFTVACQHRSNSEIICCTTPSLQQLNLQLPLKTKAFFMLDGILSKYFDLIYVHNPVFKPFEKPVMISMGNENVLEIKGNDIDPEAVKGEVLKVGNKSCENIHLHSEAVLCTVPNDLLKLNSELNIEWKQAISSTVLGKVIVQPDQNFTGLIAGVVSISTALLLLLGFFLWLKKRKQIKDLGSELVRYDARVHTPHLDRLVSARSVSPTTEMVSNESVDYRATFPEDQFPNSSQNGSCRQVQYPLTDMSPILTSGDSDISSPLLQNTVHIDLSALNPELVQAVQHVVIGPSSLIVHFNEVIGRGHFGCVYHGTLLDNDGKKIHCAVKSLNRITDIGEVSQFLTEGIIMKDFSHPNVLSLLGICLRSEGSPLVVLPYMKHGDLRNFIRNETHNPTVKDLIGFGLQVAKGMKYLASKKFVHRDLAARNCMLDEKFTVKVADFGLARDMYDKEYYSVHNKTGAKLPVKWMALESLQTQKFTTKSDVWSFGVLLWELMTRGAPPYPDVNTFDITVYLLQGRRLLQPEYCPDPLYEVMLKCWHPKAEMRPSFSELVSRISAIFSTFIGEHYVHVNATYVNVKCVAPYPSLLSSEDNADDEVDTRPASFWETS

Chain of Human MET (residues 956-1390) (P08581 956-1390): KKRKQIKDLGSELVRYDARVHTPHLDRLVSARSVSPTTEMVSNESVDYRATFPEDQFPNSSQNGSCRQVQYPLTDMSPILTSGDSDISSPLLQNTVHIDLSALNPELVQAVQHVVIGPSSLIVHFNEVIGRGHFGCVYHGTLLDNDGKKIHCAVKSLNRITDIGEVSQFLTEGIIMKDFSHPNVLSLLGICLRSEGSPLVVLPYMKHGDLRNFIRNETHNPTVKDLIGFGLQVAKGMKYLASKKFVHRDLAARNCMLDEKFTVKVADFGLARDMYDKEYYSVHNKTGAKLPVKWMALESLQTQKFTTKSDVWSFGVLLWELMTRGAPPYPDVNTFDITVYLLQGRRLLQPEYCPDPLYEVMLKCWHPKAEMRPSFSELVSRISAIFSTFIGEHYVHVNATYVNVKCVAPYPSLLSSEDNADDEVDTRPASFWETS

For the molecule `COc1cc2nccc(Oc3ccc(NC(=O)c4c(C)n(C)cc(-c5ccc(F)cc5C)c4=O)cc3F)c2nc1OC` [Compound 481, N-[4-[(6,7-dimethoxy-1,5-naphthyridin-4-yl)oxy]-3-fluorophenyl]-5-(4-fluoro-2-methylphenyl)-1,2-dimethyl-4-oxopyridine-3-carboxamide], the IC50 in test [1] (protocol of Example D-2) and in test [2] was less than 100 nM in each case.
As to `COc1nc2c(Oc3ccc(NC(=O)c4c(C)nc(C)c(-c5ccc(F)cc5)c4O)cc3F)ccnc2cc1C` [Compound 459, N-[3-fluoro-4-[(6-methoxy-7-methyl-1,5-naphthyridin-4-yl)oxy]phenyl]-5-(4-fluorophenyl)-4-hydroxy-2,6-dimethylpyridine-3-carboxamide], the figures for the IC50 in test [1] (protocol of Example D-2) and in test [2] were 100 to 300 nM and less than 100 nM, respectively.
For `COc1cc2nccc(Oc3ccc(NC(=O)c4cnc(C)c(-c5ccc(F)cc5)c4O)cc3F)c2nc1C` [Compound 541, N-[3-fluoro-4-[(7-methoxy-6-methyl-1,5-naphthyridin-4-yl)oxy]phenyl]-5-(4-fluorophenyl)-4-hydroxy-6-methylpyridine-3-carboxamide] the same measures were less than 100 nM and less than 100 nM.
For `COCc1nc(C)c(-c2ccc(F)cc2)c(O)c1C(=O)Nc1ccc(Oc2ccnc3ccc(OC)cc23)c(F)c1` [Compound 525, N-[3-fluoro-4-(6-methoxyquinolin-4-yl)oxyphenyl]-5-(4-fluorophenyl)-4-hydroxy-2-(methoxymethyl)-6-methylpyridine-3-carboxamide] the same measures were 100 to 300 nM and less than 100 nM.
With `COCc1nc(C)c(-c2ccc(F)cc2)c(O)c1C(=O)Nc1ccc(Oc2ccnc3ccc(OC)nc23)cc1` [Compound 510, 5-(4-fluorophenyl)-4-hydroxy-2-(methoxymethyl)-N-[4-[(6-methoxy-1,5-naphthyridin-4-yl)oxy]phenyl]-6-methylpyridine-3-carboxamide], the IC50 in test [1] (protocol of Example D-2) and in test [2] was less than 100 nM throughout.
Regarding `COCCOc1ccc2nccc(Oc3ccc(NC(=O)c4cnc(C)c(-c5ccc(F)cc5)c4O)cc3F)c2n1` [Compound 348, N-[3-fluoro-4-[[6-(2-methoxyethoxy)-1,5-naphthyridin-4-yl]oxy]phenyl]-5-(4-fluorophenyl)-4-hydroxy-6-methylpyridine-3-carboxamide], the IC50 in test [1] (protocol of Example D-2 (other compounds)) and in test [2] was less than 100 nM each time.
Take `COc1cnc2c(Oc3ccc(NC(=O)c4ccnn(-c5ccc(F)cc5C)c4=O)cc3)ccnc2c1` [Compound 530, 2-(4-fluoro-2-methylphenyl)-N-[4-[(7-methoxy-1,5-naphthyridin-4-yl)oxy]phenyl]-3-oxopyridazine-4-carboxamide]: the IC50 was 100 to 300 nM in test [1] (protocol of Example D-2) and less than 100 nM in test [2].
For `COc1cnc2c(Oc3ccc(NC(=O)c4nn(C)c(C)c(-c5ccc(F)cc5C)c4=O)cc3)ccnc2c1` [Compound 514, 5-(4-fluoro-2-methylphenyl)-N-[4-[(7-methoxy-1,5-naphthyridin-4-yl)oxy]phenyl]-1,6-dimethyl-4-oxopyridazine-3-carboxamide] the same measures were less than 100 nM and less than 100 nM.
As for `COc1cc2nccc(Oc3ccc(NC(=O)c4cnc(COC(C)=O)c(-c5ccc(F)cc5)c4O)cc3F)c2nc1OC` [Compound 544, [5-[[4-[(6,7-dimethoxy-1,5-naphthyridin-4-yl)oxy]-3-fluorophenyl]carbamoyl]-3-(4-fluorophenyl)-4-hydroxypyridin-2-yl]methyl acetate], the IC50 in test [1] (protocol of Example D-2) and in test [2] was less than 100 nM each time.
In the case of `COc1cnc2c(Oc3ccc(NC(=O)c4c(C)n(C)c(C)c(-c5ccc(F)cc5)c4=O)cc3F)ccnc2c1` [Compound 508, N-[3-fluoro-4-[(7-methoxy-1,5-naphthyridin-4-yl)oxy]phenyl]-5-(4-fluorophenyl)-1,2,6-trimethyl-4-oxopyridine-3-carboxamide], the IC50 in test [1] (protocol of Example D-2) and in test [2] was less than 100 nM each time.
For the molecule `COc1cc2nccc(Oc3cc(F)c(NC(=O)c4cnc(C)c(-c5ccc(F)cc5)c4O)cc3F)c2nc1C` [Compound 542, N-[2,5-difluoro-4-[(7-methoxy-6-methyl-1,5-naphthyridin-4-yl)oxy]phenyl]-5-(4-fluorophenyl)-4-hydroxy-6-methylpyridine-3-carboxamide], the IC50 in test [1] (protocol of Example D-2) and in test [2] was less than 100 nM throughout.
Regarding `COc1cc2nccc(Oc3ccc(NC(=O)c4cn(C)cc(-c5ccc(F)cc5C)c4=O)cc3F)c2nc1OC` [Compound 503, N-[4-[(6,7-dimethoxy-1,5-naphthyridin-4-yl)oxy]-3-fluorophenyl]-5-(4-fluoro-2-methylphenyl)-1-methyl-4-oxopyridine-3-carboxamide], the IC50 in test [1] (protocol of Example D-2) and in test [2] was less than 100 nM throughout.
`COc1cc2nccc(Oc3ccc(NC(=O)c4cc(C)nn(-c5ccc(F)cc5)c4=O)cc3F)c2nc1OC` [Compound 519, N-[4-[(6,7-dimethoxy-1,5-naphthyridin-4-yl)oxy]-3-fluorophenyl]-2-(4-fluorophenyl)-6-methyl-3-oxopyridazine-4-carboxamide]: the IC50 in test [1] (protocol of Example D-2) is 100 to 300 nM; in test [2], less than 100 nM.
For `COc1cnc2c(Oc3ccc(NC(=O)c4nn(C)c(C)c(-c5ccc(F)cc5C)c4=O)cc3F)ccnc2c1` [Compound 513, N-[3-fluoro-4-[(7-methoxy-1,5-naphthyridin-4-yl)oxy]phenyl]-5-(4-fluoro-2-methylphenyl)-1,6-dimethyl-4-oxopyridazine-3-carboxamide] the same measures were less than 100 nM and less than 100 nM.
For `COc1cc2nccc(Oc3ccc(NC(=O)c4c(C)n(C)c(C)c(-c5ccc(F)cc5)c4=O)cc3F)c2nc1OC` [Compound 511, N-[4-[(6,7-dimethoxy-1,5-naphthyridin-4-yl)oxy]-3-fluorophenyl]-5-(4-fluorophenyl)-1,2,6-trimethyl-4-oxopyridine-3-carboxamide] the same measures were less than 100 nM and less than 100 nM.
For `COc1cc2nccc(Oc3ccc(NC(=O)c4c(C)c(C)nn(-c5ccc(F)cc5)c4=O)cc3F)c2nc1OC` [Compound 524, N-[4-[(6,7-dimethoxy-1,5-naphthyridin-4-yl)oxy]-3-fluorophenyl]-2-(4-fluorophenyl)-5,6-dimethyl-3-oxopyridazine-4-carboxamide] the same measures were 100 to 300 nM and less than 100 nM.
For the molecule `CCn1cc(C(=O)Nc2ccc(Oc3ccnc4cc(OC)cnc34)c(F)c2)c(=O)c(-c2ccc(F)cc2)c1CF` [Compound 559, 1-Ethyl-N-[3-fluoro-4-[(7-methoxy-1,5-naphthyridin-4-yl)oxy]phenyl]-6-(fluoromethyl)-5-(4-fluorophenyl)-4-oxopyridine-3-carboxamide], the IC50 in test [1] (protocol of Example D-2) and in test [2] was less than 100 nM throughout.
In the case of `COc1cc2nccc(Oc3ccc(NC(=O)c4nn(C)c(C)c(-c5ccc(F)cc5C)c4=O)cc3)c2nc1OC` [Compound 517, N-[4-[(6,7-dimethoxy-1,5-naphthyridin-4-yl)oxy]phenyl]-5-(4-fluoro-2-methylphenyl)-1,6-dimethyl-4-oxopyridazine-3-carboxamide], the IC50 in test [1] (protocol of Example D-2) and in test [2] was less than 100 nM each time.
